For one series, the system named is U87MG glioblastoma cells. The series can be described thus: U87MG tumor xenograft model, tumor growth inhibition. In kind it is in vivo, athymic nude mice (BALB/cA nu/nu). The following applies: mice, oral gavage, 12 days. Here is the method: The efficacy of compounds disclosed herein was evaluated in a standard murine model of tumorigenesis. Human tumor cells (U87MG glioblastoma cells from ATCC) were expended in culture, harvested, and injected subcutaneously onto the rear flank of 6-7 week old female athymic nude mice (BALB/cA nu/nu, Hunan SLAC Laboratory Animal, Co.) (n=6-10 for vehicle group and for each dosing group). When tumors reached a volume of 100-250 mm^3, animals were randomly divided into vehicle control (for example, 5% DMSO+70% Captisol® (30%), 7% HCl (pH1), 18% Captisol® (30%); or 7% DMSO, 7% HCl (pH1), 70% Captisol® (30%), 16% Captisol® (30%), or the like) and compound groups. Subsequent administration of compound by oral gavage begins anywhere from day 0 to day 15 post tumor cell challenge and generally continues with once a day for the duration of the experiment.
Progression of tumor growth is assessed by tumor volumes and recorded as a function of time. The long (L) and short (W) axes of the subcutaneous tumors were measured with calipers twice weekly, and the tumor volume (TV) calculated as (L×W^2)/2). TGI was calculated from the difference between the median tumor volumes of vehicle-treated and drug-treated mice, expressed as a percentage of the median tumor volume of the vehicle-treated control group, by the following relation:
[formula] Initial statistical analysis is done by repeated measures analysis of variance (RMANOVA), followed by Scheffe psot hoc testing for multiple comparisons. Vehicle alone (5% DMSO+70% Captisol® (30%), 7% HCl (pH1), 18% Captisol® (30%); or 7% DMSO, 7% HCl (pH1), 70% Captisol® (30%), 16% Captisol® (30%), or the like) is the negative control.

Another series deals with T1, c-Met (h) (Homo sapiens, UniProt P08581).
T1 construct: host or cells: E. coli BL21-derived host (T7 phage) or HEK-293
In words: KINOMEscan competition binding assay, c-Met (h). Here is the method:
(§1) Alternatively, the kinase activities of the compounds can be measured using KINOMEscan™, which is based on a competition binding assay that quantitatively measures the ability of a compound to compete with an immobilized, active-site directed ligand. The assay was performed by combining three components: DNA-tagged kinase; immobilized ligand; and a test compound. The ability of the test compound to compete with the immobilized ligand was measured via quantitative PCR of the DNA tag.
(§2) For most assays, kinase-tagged T7 phage strains were prepared in an E. coli host derived from the BL21 strain. E. coli were grown to log-phase and infected with T7 phage and incubated with shaking at 32° C. until lysis. The lysates were centrifuged and filtered to remove cell debris. The remaining kinases were produced in HEK-293 cells and subsequently tagged with DNA for qPCR detection. Streptavidin-coated magnetic beads were treated with biotinylated small molecule ligands for 30 minutes at room temperature to generate affinity resins for kinase assays. The liganded beads were blocked with excess biotin and washed with blocking buffer (SEABLOCK™ (Pierce), 1% BSA, 0.05% TWEEN®20, 1 mM DTT) to remove unbound ligand and to reduce nonspecific binding. Binding reactions were assembled by combining kinases, liganded affinity beads, and test compounds in 1× binding buffer (20% SEABLOCK™, 0.17×PBS, 0.05% TWEEN®20, 6 mM DTT). All reactions were performed in polystyrene 96-well plates in a final volume of 0.135 mL. The assay plates were incubated at room temperature with shaking for 1 hour and the affinity beads were washed with wash buffer (1×PBS, 0.05% TWEEN®20). The beads were then re-suspended in elution buffer (1×PBS, 0.05% TWEEN®20, 0.5 μM non-biotinylated affinity ligand) and incubated at room temperature with shaking for 30 minutes. The kinase concentration in the eluates was measured by qPCR.
(§3) The kinase assays described herein were performed using KINOMEscan™ Profiling Service at DiscoveRx Corporation, 42501 Albrae St. Fremont, Calif.

Another series deals with T2, KDR (h) (Homo sapiens, UniProt P35968).
T2 construct: host or cells: E. coli BL21-derived host (T7 phage) or HEK-293
The series can be described thus: KINOMEscan competition binding assay, KDR (h). Here is the method:
as §1, §2, §3

Series [1] is described as follows: Pharmacokinetics after intravenous and oral administration in rats. In kind it is in vivo. The note with it: for F: oral bioavailability, oral dose not given; for AUC(0-t) / half-life / Vd: rat, plasma; for clearance (CL) after iv dosing / AUC(0-t) / half-life / Vd: iv dosing; for Vd: read-out: Vss. The protocol:
The compounds disclosed herein are assessed in pharmacokinetic studies in mice, rats, dogs or monkeys. The compounds are administered as a water solution, 2% HPMC+1% TWEEN®80 in water solution, 5% DMSO+5% solutol in saline, 4% MC suspension or capsule. For the intravenous administration, the animals are generally given at 1 or 2 mg/kg dose. For the oral (p.o.) dosing, mice and rats are generally given 5 or 10 mg/kg dose, and dogs and monkeys are generally given 10 mg/kg dose. The blood samples (0.3 mL) are drawn at 0.25, 0.5, 1.0, 2.0, 3.0, 4.0, 6.0, 8.0, 12 and 24 h time points or 0.083, 0.25, 0.5, 1.0, 2.0, 4.0, 6.0, 8.0 and 24 h time points and centrifuged at 3,000 or 4000 rpm for 2 to 10 min. The plasma solutions are collected, stored at −20° C. or −70° C. until analyzed by LC/MS/MS as described above.

The structures appear in SMILES notation. Read-outs that look alike come from different tables or passages of the source.

T1 sequence (P08581 25-1390): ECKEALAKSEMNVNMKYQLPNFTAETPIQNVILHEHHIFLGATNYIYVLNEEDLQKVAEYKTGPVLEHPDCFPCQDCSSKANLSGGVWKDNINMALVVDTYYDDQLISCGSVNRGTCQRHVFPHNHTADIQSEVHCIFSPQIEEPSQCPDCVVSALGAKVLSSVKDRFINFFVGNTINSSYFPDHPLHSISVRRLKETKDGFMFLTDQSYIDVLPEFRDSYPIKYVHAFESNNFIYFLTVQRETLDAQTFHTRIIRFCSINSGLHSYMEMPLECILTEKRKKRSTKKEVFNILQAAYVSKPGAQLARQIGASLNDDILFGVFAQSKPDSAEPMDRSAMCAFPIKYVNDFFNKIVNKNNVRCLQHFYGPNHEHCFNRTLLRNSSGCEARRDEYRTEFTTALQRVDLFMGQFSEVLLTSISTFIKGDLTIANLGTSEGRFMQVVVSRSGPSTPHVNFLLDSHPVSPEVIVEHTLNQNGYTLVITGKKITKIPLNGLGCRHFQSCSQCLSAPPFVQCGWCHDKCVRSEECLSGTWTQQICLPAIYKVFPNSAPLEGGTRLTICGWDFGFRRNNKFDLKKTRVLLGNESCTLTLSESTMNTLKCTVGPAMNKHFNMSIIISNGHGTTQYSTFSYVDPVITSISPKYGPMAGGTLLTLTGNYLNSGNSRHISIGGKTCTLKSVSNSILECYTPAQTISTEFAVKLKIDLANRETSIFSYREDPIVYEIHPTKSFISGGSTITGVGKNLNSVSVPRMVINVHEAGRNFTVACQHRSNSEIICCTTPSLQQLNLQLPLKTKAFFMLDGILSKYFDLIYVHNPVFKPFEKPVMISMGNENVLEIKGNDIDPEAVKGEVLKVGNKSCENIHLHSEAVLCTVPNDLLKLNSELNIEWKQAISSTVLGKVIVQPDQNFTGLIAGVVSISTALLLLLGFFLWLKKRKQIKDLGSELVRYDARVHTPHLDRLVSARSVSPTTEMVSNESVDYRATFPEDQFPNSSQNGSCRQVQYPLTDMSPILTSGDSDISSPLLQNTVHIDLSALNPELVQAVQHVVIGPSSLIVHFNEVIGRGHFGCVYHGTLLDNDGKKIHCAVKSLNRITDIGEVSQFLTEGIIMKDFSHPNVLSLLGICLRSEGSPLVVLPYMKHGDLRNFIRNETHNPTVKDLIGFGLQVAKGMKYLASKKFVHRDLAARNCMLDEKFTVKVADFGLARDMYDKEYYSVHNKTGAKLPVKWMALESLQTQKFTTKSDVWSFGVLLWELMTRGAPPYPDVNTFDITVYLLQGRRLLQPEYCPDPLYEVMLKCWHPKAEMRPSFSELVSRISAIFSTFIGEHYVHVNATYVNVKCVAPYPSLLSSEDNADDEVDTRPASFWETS
T2 sequence (P35968 20-1356): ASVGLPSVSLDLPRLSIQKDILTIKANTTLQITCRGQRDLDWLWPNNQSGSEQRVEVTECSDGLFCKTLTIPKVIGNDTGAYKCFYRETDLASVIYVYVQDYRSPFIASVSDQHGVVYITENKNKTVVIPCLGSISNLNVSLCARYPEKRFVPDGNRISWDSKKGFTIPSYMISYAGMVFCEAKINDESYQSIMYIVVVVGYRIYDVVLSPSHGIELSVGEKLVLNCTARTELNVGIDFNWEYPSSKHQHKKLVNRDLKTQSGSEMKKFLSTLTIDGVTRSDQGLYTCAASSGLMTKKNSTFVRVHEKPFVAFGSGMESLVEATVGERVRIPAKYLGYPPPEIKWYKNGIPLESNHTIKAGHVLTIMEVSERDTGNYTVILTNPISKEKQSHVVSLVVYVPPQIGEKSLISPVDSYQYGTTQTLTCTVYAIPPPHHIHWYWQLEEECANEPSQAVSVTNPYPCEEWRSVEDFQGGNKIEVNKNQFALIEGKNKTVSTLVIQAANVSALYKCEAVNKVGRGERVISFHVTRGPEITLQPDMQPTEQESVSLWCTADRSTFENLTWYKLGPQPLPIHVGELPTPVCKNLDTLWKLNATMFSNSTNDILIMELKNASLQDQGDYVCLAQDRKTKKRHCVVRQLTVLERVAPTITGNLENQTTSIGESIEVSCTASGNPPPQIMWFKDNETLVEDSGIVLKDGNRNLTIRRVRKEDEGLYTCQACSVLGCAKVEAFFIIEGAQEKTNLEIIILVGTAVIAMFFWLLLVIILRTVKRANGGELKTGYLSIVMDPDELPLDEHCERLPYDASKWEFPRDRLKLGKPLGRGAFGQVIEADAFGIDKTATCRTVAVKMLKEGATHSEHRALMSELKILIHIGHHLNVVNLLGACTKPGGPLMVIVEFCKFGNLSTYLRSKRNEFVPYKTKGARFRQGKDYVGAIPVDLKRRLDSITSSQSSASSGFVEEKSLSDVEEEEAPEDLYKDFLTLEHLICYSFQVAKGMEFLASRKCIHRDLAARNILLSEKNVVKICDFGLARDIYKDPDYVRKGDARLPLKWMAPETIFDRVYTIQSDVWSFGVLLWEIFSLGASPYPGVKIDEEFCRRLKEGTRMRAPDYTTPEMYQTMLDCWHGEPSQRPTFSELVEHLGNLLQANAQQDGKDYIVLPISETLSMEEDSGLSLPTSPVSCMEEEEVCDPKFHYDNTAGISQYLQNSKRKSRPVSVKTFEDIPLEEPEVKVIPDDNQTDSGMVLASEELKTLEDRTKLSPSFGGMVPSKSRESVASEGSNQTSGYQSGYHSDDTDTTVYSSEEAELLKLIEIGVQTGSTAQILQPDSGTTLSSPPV

As for `Cc1c(C(=O)Nc2ccc(Oc3ccnc(N)c3Cl)cn2)c(=O)n(-c2ccccc2)n1C` [Ex. 19, N-(5-((2-amino-3-chloropyridin-4-yl)oxy)pyridin-2-yl)-1,5-dimethyl-3-oxo-2-phenyl-2,3-dihydro-1H-pyrazole-4-carboxamide], the “TGI % (on last day of dosing)” value was 22% in the series on U87MG glioblastoma cells (6 mg/kg), 49% in the series on U87MG glioblastoma cells (20 mg/kg) and 103% in the series with U87MG glioblastoma cells (60 mg/kg). Moreover, the Kd – broadly, the free concentration of one partner at which half of the binding sites on the other are occupied at equilibrium, for simple one-to-one binding – at c-Met (h) is 16 nM; at KDR (h), 26 nM.
As for `Cc1c(C(=O)Nc2ccc(Oc3ccnc(N)c3)cn2)c(=O)n(-c2ccccc2)n1C` [Ex. 16, N-(5-((2-aminopyridin-4-yl)oxy)pyridin-2-yl)-1,5-dimethyl-3-oxo-2-phenyl-2,3-dihydro-1H-pyrazole-4-carboxamide], the Kd at c-Met (h) was 200 nM; at KDR (h) it was 1800 nM.
On to `CC(=O)Nc1cc(Oc2ccc(NC(=O)c3c(C)n(C)n(-c4ccccc4)c3=O)c(Cl)c2)ccn1` [Ex. 13, N-(4-((2-acetamidopyridin-4-yl)oxy)-2-chlorophenyl)-1,5-dimethyl-3-oxo-2-phenyl-2,3-dihydro-1H-pyrazole-4-carboxamide], for which the results for the Kd on c-Met (h) and at KDR (h) were 18 nM and 570 nM, respectively.
In the case of `Cc1c(C(=O)Nc2ccc(Oc3ccnc(N)c3)cc2Cl)c(=O)n(-c2ccccc2)n1C` [Ex. 12, N-(4-((2-aminopyridin-4-yl)oxy)-2-chlorophenyl)-1,5-dimethyl-3-oxo-2-phenyl-2,3-dihydro-1H-pyrazole-4-carboxamide], binding at c-Met (h) was characterised by a dissociation constant (Kd) of 56 nM. Binding on KDR (h) was characterised by a dissociation constant (Kd) of 19000 nM. In series [1] (2 mg/kg), the “clearance (CL) after iv dosing” value stood at 15.7 mL/min/kg; the AUC(0-t) (commonly exposure summed from dosing to a finite time, without extrapolation to infinity) came to 2120 ng·h/mL; the half-life – broadly, the time needed for the level to fall by half in the phase considered – is 1.56 h; the Vd worked out at 0.69 L/kg. In series [1] (iv dose 2 mg/kg), the F amounted to 125.0%.
On to `CC(=O)Nc1nccc(Oc2ccc(NC(=O)c3c(C)n(C)n(-c4ccccc4)c3=O)cc2)c1Cl` [Ex. 21, N-(4-((2-acetamido-3-chloropyridin-4-yl)oxy)phenyl)-1,5-dimethyl-3-oxo-2-phenyl-2,3-dihydro-1H-pyrazole-4-carboxamide], for which the results for the Kd on c-Met (h) and at KDR (h) were 120 nM and 1100 nM, respectively.
With `Cc1c(C(=O)Nc2cc(F)c(Oc3ccnc(NC(=O)N4CCOCC4)c3)cc2F)c(=O)n(-c2ccccc2)n1C` [Ex. 10, N-(4-(4-(1,5-dimethyl-3-oxo-2-phenyl-2,3-dihydro-1H-pyrazole-4-carboxamido)-2,5-difluorophenoxy)pyridin-2-yl)morpholine-4-carboxamide], in series [1] (1 mg/kg), the “clearance (CL) after iv dosing” value was found to be 1.83 mL/min/kg, the AUC(0-t) was determined as 9640 ng·h/mL, the half-life is 4.6 h and the Vd was 0.53 L/kg. In series [1] (iv dose 1 mg/kg), this compound came in with an F of 83.2%.
For `CC(=O)Nc1cc(Oc2cc(F)c(NC(=O)c3c(C)n(C)n(-c4ccccc4)c3=O)cc2F)ccn1` [Ex. 9, N-(4-((2-acetamidopyridin-4-yl)oxy)-2,5-difluorophenyl)-1,5-dimethyl-3-oxo-2-phenyl-2,3-dihydro-1H-pyrazole-4-carboxamide], the Kd on c-Met (h) came to 1.8 nM. Further, the Kd at KDR (h) turned out to be 160 nM. For the same compound, in series [1] (1 mg/kg), the “clearance (CL) after iv dosing” value worked out at 0.67 mL/min/kg, the AUC(0-t) turned out to be 23300 ng·h/mL, the half-life was 4.76 h and the Vd came to 0.24 L/kg. Besides, the F in series [1] (iv dose 1 mg/kg) is listed as 61.2%.
For the compound `CC(=O)Nc1cc(Oc2ccc(NC(=O)c3c(C)n(C)n(-c4ccccc4)c3=O)cc2F)ccn1` [Ex. 23, N-(4-((2-acetamidopyridin-4-yl)oxy)-3-fluorophenyl)-1,5-dimethyl-3-oxo-2-phenyl-2,3-dihydro-1H-pyrazole-4-carboxamide], at c-Met (h), the Kd amounted to 5.1 nM. The compound further registered a Kd on KDR (h) of 13 nM. Further, in series [1] (2 mg/kg), the “clearance (CL) after iv dosing” value is 0.5 mL/min/kg, the AUC(0-t) is 56600 ng·h/mL, the half-life is 4.4 h and the Vd was found to be 0.18 L/kg. The compound also gave a F in series [1] (iv dose 2 mg/kg) of 69.7%.
At c-Met (h), `Cc1c(C(=O)Nc2ccc(Oc3ccnc(N)c3)c(F)c2F)c(=O)n(-c2ccccc2)n1C` [Ex. 5, N-(4-((2-aminopyridin-4-yl)oxy)-2,3-difluorophenyl)-1,5-dimethyl-3-oxo-2-phenyl-2,3-dihydro-1H-pyrazole-4-carboxamide] showed a dissociation constant Kd of 37 nM. The affinity on KDR (h), expressed as Kd, was 3300 nM. Also, in series [1] (2 mg/kg), the “clearance (CL) after iv dosing” value came to 31.2 mL/min/kg, the AUC(0-t) stood at 1080 ng·h/mL, the half-life was 0.31 h and the Vd stood at 0.53 L/kg. This compound also registered a F in series [1] (iv dose 2 mg/kg) of 19.1%.
For `[2H]c1cc(Oc2ccnc(N)c2)ccc1NC(=O)c1c(C)n(C)n(-c2ccccc2)c1=O` [Ex. 15, N-(4-((2-aminopyridin-4-yl)oxy)-2-deuteriumphenyl)-1,5-dimethyl-3-oxo-2-phenyl-2,3-dihydro-1H-pyrazole-4-carboxamide], the Kd on c-Met (h) was 180 nM; at KDR (h), 3800 nM.
`Cc1c(C(=O)Nc2cc(F)c(Oc3ccnc(N)c3Cl)cc2F)c(=O)n(-c2ccccc2)n1C` [Ex. 11, N-(4-((2-amino-3-chloropyridin-4-yl)oxy)-2,5-difluorophenyl)-1,5-dimethyl-3-oxo-2-phenyl-2,3-dihydro-1H-pyrazole-4-carboxamide] registered a Kd on c-Met (h) of 1.4 nM. The dissociation constant (Kd) on KDR (h) came to 340 nM. In series [1] (2 mg/kg), the “clearance (CL) after iv dosing” value stood at 9.5 mL/min/kg, the AUC(0-t) is 3340 ng·h/mL, the half-life is 2.9 h and the Vd came to 1.17 L/kg. Also, the F in series [1] (iv dose 2 mg/kg) is recorded as 88.0%.
For `CC(=O)Nc1nccc(Oc2ccc(NC(=O)c3c(C)n(C)n(-c4ccccc4)c3=O)cc2F)c1Cl` [Ex. 4, N-(4-((2-acetamido-3-chloropyridin-4-yl)oxy)-3-fluorophenyl)-1,5-dimethyl-3-oxo-2-phenyl-2,3-dihydro-1H-pyrazole-4-carboxamide], the results for the Kd at c-Met (h) and on KDR (h) were 24 nM and 540 nM, respectively.
As to `CC(=O)Nc1nccc(Oc2ccc(NC(=O)c3c(C)n(C)n(-c4ccccc4)c3=O)nc2)c1Cl` [Ex. 20, N-(5-((2-acetamido-3-chloropyridin-4-yl)oxy)pyridin-2-yl)-1,5-dimethyl-3-oxo-2-phenyl-2,3-dihydro-1H-pyrazole-4-carboxamide], the Kd on c-Met (h) is 620 nM; at KDR (h) it was 1600 nM.

(Values after patent publication US8969388B1, “Substituted pyrazolone compounds and methods of use” (Calitor Sciences, LLC, priority 2012, dated 2015).)
